Where two headings read alike, the source gives them in different places.
How the values were obtained:
Breast cancer subpanel = assay: NCI five-dose assay, subpanel mean; assay type: cell-based, human
BT-549 = assay: NCI five-dose assay; assay type: cell-based, human; conditions: BT-549, Breast cancer
NCI-H460 = assay: NCI five-dose assay; assay type: cell-based, human; conditions: NCI-H460, Non-small cell lung cancer
SNB-75 = assay: NCI five-dose assay; assay type: cell-based, human; conditions: SNB-75, CNS cancer
EKVX = assay: NCI five-dose assay; assay type: cell-based, human; conditions: Non-small cell lung cancer
786-0 = assay: NCI five-dose assay; assay type: cell-based, human; conditions: 786-0, Renal cancer
LOX IMVI = assay: NCI five-dose assay; assay type: cell-based, human; conditions: Melanoma
tubulin = biological target: T1, tubulin (Sus scrofa, UniProt P02550+P02554); assay: Tubulin polymerization inhibitory assay; assay type: biochemical
T1 construct: purchased Cytoskeleton Inc., Denver, CO, USA
Text: The substances’ effects on tubulin polymerization were examined using the Tubulin Polymerization Assay Kit (Cytoskeleton Inc., Denver, CO, USA) according to the supplier’s instructions, with details described in Appendix A..
The activity of compounds on tubulin polymerization was investigated using the Tubulin Polymerization Assay Kit (Cytoskeleton Inc., Denver, CO, USA), which works via fluorescent reporter enhancement. […] Docetaxel and vincristine (Apoteket AB, Stockholm, Sweden) served as positive stabilizing and destabilizing controls. Both were used at a 3 µM concentration in PBS.

SF-295 = assay: NCI five-dose assay; assay type: cell-based, human; conditions: SF-295, CNS cancer
NCI-H322M = assay: NCI five-dose assay; assay type: cell-based, human; conditions: Non-small cell lung cancer
Prostate cancer subpanel = assay: NCI five-dose assay, subpanel mean; assay type: cell-based, human
SK-MEL-2 = assay: NCI five-dose assay; assay type: cell-based, human; conditions: SK-MEL-2, Melanoma
HL-60(TB) = assay: NCI five-dose assay; assay type: cell-based, human; conditions: Leukemia
OVCAR-4 = assay: NCI five-dose assay; assay type: cell-based, human; conditions: OVCAR-4, Ovarian cancer
MDA-MB-435 = assay: NCI five-dose assay; assay type: cell-based, human; conditions: MDA-MB-435, Melanoma
NCI-H522 = assay: NCI five-dose assay; assay type: cell-based, human; conditions: NCI-H522, Non-small cell lung cancer
NCI-H23 = assay: NCI five-dose assay; assay type: cell-based, human; conditions: NCI-H23, Non-small cell lung cancer
HCT-116 = assay: NCI five-dose assay; assay type: cell-based, human; conditions: HCT-116, Colon cancer
SK-OV-3 = assay: NCI five-dose assay; assay type: cell-based, human; conditions: SK-OV-3, Ovarian cancer
UO-31 = assay: NCI five-dose assay; assay type: cell-based, human; conditions: UO-31, Renal cancer
A498 = assay: NCI five-dose assay; assay type: cell-based, human; conditions: A498, Renal cancer
CCRF-CEM = assay: NCI five-dose assay; assay type: cell-based, human; conditions: Leukemia
DU-145 = assay: NCI five-dose assay; assay type: cell-based, human; conditions: DU-145, Prostate cancer
NCI-H226 = assay: NCI five-dose assay; assay type: cell-based, human; conditions: NCI-H226, Non-small cell lung cancer
HOP-62 = assay: NCI five-dose assay; assay type: cell-based, human; conditions: HOP-62, Non-small cell lung cancer
[1] = Homo sapiens, 48 h, read-out: LC50 (the source's name)
[2] = Homo sapiens, read-out: GI50 Conc. per Cell Lines

T1 sequence (P02554 whole entry): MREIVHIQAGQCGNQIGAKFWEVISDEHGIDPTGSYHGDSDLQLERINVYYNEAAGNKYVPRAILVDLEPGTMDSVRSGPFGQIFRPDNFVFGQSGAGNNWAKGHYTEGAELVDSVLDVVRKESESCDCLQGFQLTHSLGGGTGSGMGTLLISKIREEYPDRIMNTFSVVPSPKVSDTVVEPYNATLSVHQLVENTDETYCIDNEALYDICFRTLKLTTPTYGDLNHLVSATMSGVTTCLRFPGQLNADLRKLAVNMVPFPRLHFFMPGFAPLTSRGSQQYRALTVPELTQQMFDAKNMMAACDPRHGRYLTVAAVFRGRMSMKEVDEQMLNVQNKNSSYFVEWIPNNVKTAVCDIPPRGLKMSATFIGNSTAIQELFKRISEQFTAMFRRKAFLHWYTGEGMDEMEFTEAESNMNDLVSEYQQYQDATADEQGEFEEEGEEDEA
T1 sequence (P02550 whole entry): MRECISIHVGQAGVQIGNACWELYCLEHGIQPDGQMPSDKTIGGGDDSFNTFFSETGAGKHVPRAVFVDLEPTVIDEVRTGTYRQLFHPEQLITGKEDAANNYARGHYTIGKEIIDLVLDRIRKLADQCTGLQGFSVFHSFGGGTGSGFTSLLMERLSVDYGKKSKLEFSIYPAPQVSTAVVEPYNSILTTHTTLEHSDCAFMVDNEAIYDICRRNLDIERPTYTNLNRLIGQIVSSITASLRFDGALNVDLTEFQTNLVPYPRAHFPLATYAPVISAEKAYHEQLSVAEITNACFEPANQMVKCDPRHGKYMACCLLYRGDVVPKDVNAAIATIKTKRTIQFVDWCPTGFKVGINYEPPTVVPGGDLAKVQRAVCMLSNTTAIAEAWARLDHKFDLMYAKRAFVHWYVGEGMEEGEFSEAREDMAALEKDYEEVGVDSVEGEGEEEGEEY

## Cc1ccc(/C(CSc2nnc(-c3c[nH]c4ccccc34)n2-c2ccccc2)=N/O)cc1 [Compound 7h, (Z)-2-((5-(1H-Indol-3-yl)-4-phenyl-4H-1,2,4-triazol-3-yl)thio)-1-(p-tolyl)ethanone Oxime]
Breast cancer subpanel; Breast cancer subpanel
  GI50 Selectivity Ratio (MID a/MID b): 1.58
Breast cancer subpanel; Homo sapiens, average sensitivity of all cell lines of the Breast cancer subpanel, read-out: GI50 Subpanel MID b
  GI50: 1.9 µM
BT-549
  TGI Conc. per Cell Lines: 3.03 µM
BT-549; [1]
  CC50: 5.78 µM
BT-549; [2]
  GI50: 1.59 µM
NCI-H460; [1]
  CC50: 6.55 µM
NCI-H460; [2]
  GI50: 3.18 µM
NCI-H460
  TGI Conc. per Cell Lines: 12.20 µM
SNB-75; [1]
  CC50: 5.48 µM
SNB-75; [2]
  GI50: 1.4 µM
SNB-75
  TGI Conc. per Cell Lines: 2.77 µM
EKVX; [1]
  CC50: > 100 µM
EKVX; [2]
  GI50: 2.15 µM
EKVX
  TGI Conc. per Cell Lines: 5.58 µM
786-0
  TGI Conc. per Cell Lines: 31.40 µM
786-0; Homo sapiens, 48 h
  LC50 (50% lethal concentration): 98.1 µM
786-0; [2]
  GI50: 10 µM
LOX IMVI; [1]
  CC50: 5.73 µM
LOX IMVI; [2]
  GI50: 1.75 µM
LOX IMVI
  TGI Conc. per Cell Lines: 3.17 µM
tubulin; conc 0.01 (unit not given; IC50 from this curve in µg/ml)
  %inhibition: 2.01%
tubulin; conc 0.1 (unit not given; IC50 from this curve in µg/ml)
  %inhibition: 8.94%
tubulin; conc 1 (unit not given; IC50 from this curve in µg/ml)
  %inhibition: 26.1%
tubulin; conc 10 (unit not given; IC50 from this curve in µg/ml)
  %inhibition: 49.9%
tubulin; conc 100 (unit not given; IC50 from this curve in µg/ml)
  %inhibition: 76.7%
tubulin; read-out: Tub. IC50±SD (converted)
  IC50: 18.4 µM
tubulin; read-out: Tubulin Inhibitory Effect, IC50
  IC50: 18.4 ± 0.7 µM
SF-295; [1]
  CC50: 6.15 µM
SF-295; [2]
  GI50: 1.64 µM
SF-295
  TGI Conc. per Cell Lines: 3.18 µM
NCI-H322M; [1]
  CC50: > 100 µM
NCI-H322M; [2]
  GI50: 3.54 µM
NCI-H322M
  TGI Conc. per Cell Lines: 19.80 µM
Prostate cancer subpanel; Homo sapiens, average sensitivity of all cell lines of the Prostate cancer subpanel, read-out: GI50 Subpanel MID b
  GI50: 1.85 µM
Prostate cancer subpanel; Prostate cancer subpanel
  GI50 Selectivity Ratio (MID a/MID b): 1.61
SK-MEL-2; [1]
  CC50: > 100 µM
SK-MEL-2; [2]
  GI50: 2.88 µM
SK-MEL-2
  TGI Conc. per Cell Lines: 8.96 µM
HL-60(TB); [2]
  GI50: 1.92 µM
HL-60(TB)
  TGI Conc. per Cell Lines: 3.96 µM
OVCAR-4; Homo sapiens, 48 h
  LC50: 7.04 µM
OVCAR-4; [2]
  GI50: 1.75 µM
OVCAR-4
  TGI Conc. per Cell Lines: 3.51 µM
MDA-MB-435; [1]
  CC50: 5.72 µM
MDA-MB-435; [2]
  GI50: 1.63 µM
MDA-MB-435
  TGI Conc. per Cell Lines: 3.05 µM
NCI-H522; [1]
  CC50: > 100 µM
NCI-H522; [2]
  GI50: 2.24 µM
NCI-H522
  TGI Conc. per Cell Lines: 6.04 µM
NCI-H23; [1]
  CC50: > 100 µM
NCI-H23; [2]
  GI50: 10.1 µM
NCI-H23
  TGI Conc. per Cell Lines: 52.20 µM
HCT-116
  TGI Conc. per Cell Lines: 3.65 µM
HCT-116; [2]
  GI50: 1.87 µM
SK-OV-3; [1]
  CC50: 7.89 µM
SK-OV-3; [2]
  GI50: 1.68 µM
SK-OV-3
  TGI Conc. per Cell Lines: 3.64 µM
UO-31; [1]
  CC50: 9.47 µM
UO-31; [2]
  GI50: 1.82 µM
UO-31
  TGI Conc. per Cell Lines: 4.15 µM
A498
  TGI Conc. per Cell Lines: 89.10 µM
A498; Homo sapiens, 48 h
  LC50: > 100 µM
A498; [2]
  GI50: 24.1 µM
CCRF-CEM; [1]
  CC50: > 100 µM
CCRF-CEM; [2]
  GI50: 2.14 µM
CCRF-CEM
  TGI Conc. per Cell Lines: 4.98 µM
DU-145
  TGI Conc. per Cell Lines: 4.01 µM
DU-145; [2]
  GI50: 1.94 µM
NCI-H226; [1]
  CC50: 6.91 µM
NCI-H226; [2]
  GI50: 1.63 µM
NCI-H226
  TGI Conc. per Cell Lines: 3.36 µM
HOP-62
  TGI Conc. per Cell Lines: 3.42 µM
HOP-62; [1]
  CC50: 6.93 µM
HOP-62; [2]
  GI50: 1.69 µM

From PMC11859928, “Design, Synthesis, and Antiproliferative Activity of Novel Indole/1,2,4-Triazole Hybrids as Tubulin Polymerization Inhibitors” (Pharmaceuticals, 2025)
